For the test, the system named is ornithine decarboxylase (ODC). Description: inhibition of TPA induction of ornithine decarboxylase (ODC) activity. The settings on record: for IC80: IC80 column; for IC60: concentration which results in 60% inhibition. It counts as in vivo. An excerpt: The retinoid-like activity of these compounds is confirmed through the classic measure of retinoic acid activity involving the effects of retinoic acid on ornithine decarboxylase. The original work on the correlation between retinoic acid and decrease in cell proliferation was done by Verma & Boutwell, Cancer Research, 1977, 37,2196-2201. That reference discloses that ornithine decarboxylase (ODC) activity increased precedent to polyamine biosynthesis. It has been established elsewhere that increases in polyamine synthesis can be correlated or associated with cellular proliferation. Thus, if ODC activity could be inhibited, cell hyperproliferation could be modulated. Although all causes for ODC activity increases are unknown, it is known that 12-0-tetradecanoylphorbol-13-acetate (TPA) induces ODC activity. Retinoic acid inhibits this induction of ODC activity by TPA. […] The results of this assay for certain exemplary compounds of the invention are shown in Table 1 below, wherein either the IC80 or IC60 value for each exemplary compound is indicated in namolar concentration units. (As is known in the art, the IC60 value is that concentration of the compound (in nanomols) which results in 60% inhibition.)

SMILES strings stand for the structures.

One may read the IC80 as the concentration at which the effect reaches the 80% level. Lower therefore signals greater potency. In turn, `CCOC(=O)c1ccc(C#C/C=C/C2=C(C)SCCC2(C)C)nc1` [Compound 3, Ethyl 6-[4'-(2",6",6"-Trimethyl-3"-thioxacyclohex-1"-enyl)-but-3'(E)-ene-1'-ynyl]nicotinate] gave an 80% effect concentration (IC80) of 0.028 µM.

Take `CCOC(=O)c1ccc(C#C/C=C/C2=C(C)SCCC2(C)C)cc1` [Compound 1, Ethyl 4-[4'-(2",6",6",-Trimethyl-3"-thioxacyclohex-1"-enyl)-but-3'(E)-ene-1'-ynyl]benzoate]: the IC60 came to 0.0038 µM.

`CC1=C(/C=C/C#Cc2ccc(C(=O)O)cn2)C(C)(C)CCS1` [Compound 4, 6-[4'-(2",6",6"-Trimethyl-3"-thioxacyclohex-1"-enyl)-but-3'(E) -ene-1'-ynyl]nicotinic Acid] returned a concentration for an effect of 80% (IC80) of 0.0336 µM.

Regarding `CC1=C(/C=C/C#Cc2ccc(C(=O)O)cc2)C(C)(C)CCS1` [Compound 2, 4-[4'-(2",6",6"-Trimethyl-3"-thioxacyclohex-1"-enyl) -but-3'(E)-ene-1'-ynyl]benzoic Acid], the IC60 was determined as 0.0014 µM.
